Test results taken from BindingDB's records for doi:10.1021/jm0496077 (University of Southern California, 2005).
pIC50: −log10 of the molar value.

Tests used:
[1] = biological target: Integrase (Human immunodeficiency virus 1); test: Inhibitory concentration against human immuno deficiency virus type 1 integrase (Strand Transfer)
[2] = biological target: Integrase (Human immunodeficiency virus 1); test: Inhibitory concentration against human immuno deficiency virus type 1 integrase (3'-processing)

Row | pIC50 [1] | pIC50 [2] | SMILES
1 | < 4.00 | < 4.00 | COc1ccc(/C=C2\SC(=S)N(CCC(=O)Nc3cccc(C(=O)O)c3)C2=O)cc1
2 | 4.07 | 4.01 | COc1cc(/C=C2/SC(=S)N(CCC(=O)Nc3ccc(C(=O)O)cc3)C2=O)cc(OC)c1OC
3 | < 4.00 | 4.03 | CCOc1ccc(/C=C2\SC(=S)N(CCC(=O)Nc3cccc(C(=O)O)c3)C2=O)cc1
4 | < 4.00 | < 4.00 | COc1cc(C(=O)Nc2ccc(O)c(C(=O)O)c2)cc(OC)c1OC [2-Hydroxy-5-(3,4,5-trimethoxy-benzoylamino)-benzoic acid]
5 | 4.42 | 4.42 | O=C(CCN1C(=O)/C(=C/c2cccs2)SC1=S)Nc1ccc(O)c(C(=O)O)c1 [2-Hydroxy-5-(3-{4-oxo-5-[1-thiophen-2-yl-meth-(Z)-ylidene]-2-thioxo-thiazolidin-3-yl}-propionylamino)-benzoic acid]
6 | 4.64 | 4.44 | CC(/C=C1\SC(=S)N(CCC(=O)Nc2ccc(O)c(C(=O)O)c2)C1=O)=C\c1ccccc1 [2-Hydroxy-5-(3-{5-[(E)-2-methyl-3-phenyl-prop-2-en-(Z)-ylidene]-4-oxo-2-thioxo-thiazolidin-3-yl}-propionylamino)-benzoic acid]
7 | 4.46 | 4.36 | O=C(CCCN1C(=O)/C(=C\c2cccs2)SC1=S)Nc1ccc(O)c(C(=O)O)c1 [2-Hydroxy-5-(4-{4-oxo-5-[1-thiophen-2-yl-meth-(Z)-ylidene]-2-thioxo-thiazolidin-3-yl}-butyrylamino)-benzoic acid]
8 | < 4.00 | < 4.00 | O=C(CN1C(=O)/C(=C/c2ccccc2Cl)SC1=S)Nc1ccc([N+](=O)[O-])cc1O [2-{5-[1-(2-Chloro-phenyl)-meth-(Z)-ylidene]-4-oxo-2-thioxo-thiazolidin-3-yl}-N-(2-hydroxy-4-nitro-phenyl)-acetamide]
9 | 4.74 | 4.70 | O=C(CN1C(=O)/C(=C/c2ccccc2Cl)SC1=S)Nc1cc([N+](=O)[O-])ccc1O [2-{5-[1-(2-Chloro-phenyl)-meth-(Z)-ylidene]-4-oxo-2-thioxo-thiazolidin-3-yl}-N-(2-hydroxy-5-nitro-phenyl)-acetamide]
10 | < 4.00 | 4.01 | Cc1ccc(/C=C2/SC(=S)N(CC(=O)Nc3cccc(C(=O)O)c3)C2=O)cc1 [3-(2-{4-Oxo-2-thioxo-5-[1-p-tolyl-meth-(Z)-ylidene]-thiazolidin-3-yl}-acetylamino)-benzoic acid]
11 | < 4.00 | < 4.00 | CCc1ccc(/C=C2/SC(=S)N(CC(=O)Nc3cccc(C(=O)O)c3)C2=O)cc1 [3-(2-{5-[1-(4-Ethyl-phenyl)-meth-(Z)-ylidene]-4-oxo-2-thioxo-thiazolidin-3-yl}-acetylamino)-benzoic acid]
12 | < 4.00 | 4.00 | Cc1ccc(/C=C2\SC(=S)N(CCC(=O)Nc3cccc(C(=O)O)c3)C2=O)cc1 [3-(3-{4-Oxo-2-thioxo-5-[1-p-tolyl-meth-(Z)-ylidene]-thiazolidin-3-yl}-propionylamino)-benzoic acid]
13 | 4.00 | < 4.00 | O=C1/C(=C/c2c(NCCO)nc3ccccn3c2=O)SC(=S)N1Cc1ccco1 [3-[3-Furan-2-ylmethyl-4-oxo-2-thioxo-thiazolidin-(5E)-ylidenemethyl]-2-(2-hydroxy-ethylamino)-pyrido[1,2-a]pyrimidin-4-one]
14 | 4.36 | 4.08 | Cc1ccc(/C=C2\SC(=S)N(CCC(=O)Nc3ccc(S(=O)(=O)Nc4nccs4)cc3)C2=O)cc1 [3-{4-Oxo-2-thioxo-5-[1-p-tolyl-meth-(Z)-ylidene]-thiazolidin-3-yl}-N-[4-(thiazol-2-ylsulfamoyl)-phenyl]-propionamide]
15 | < 4.00 | < 4.00 | O=C(CCN1C(=O)/C(=C/c2ccccc2Cl)SC1=S)Nc1ccc([N+](=O)[O-])cc1 [3-{5-[1-(2-Chloro-phenyl)-meth-(Z)-ylidene]-4-oxo-2-thioxo-thiazolidin-3-yl}-N-(4-nitro-phenyl)-propionamide]
16 | < 4.00 | < 4.00 | CCOC(=O)N1CCN(C(=O)CCN2C(=O)/C(=C/c3ccc(OC)c(OC)c3)SC2=S)CC1 [4-(3-{5-[1-(3,4-Dimethoxy-phenyl)-meth-(Z)-ylidene]-4-oxo-2-thioxo-thiazolidin-3-yl}-propionyl)-piperazine-1-carboxylic acid ethyl ester]
17 | 4.77 | 4.21 | COc1ccc(/C=C2/SC(=S)N(CCC(=O)Nc3ccc(C(=O)O)c(O)c3)C2=O)cc1OC [4-(3-{5-[1-(3,4-Dimethoxy-phenyl)-meth-(Z)-ylidene]-4-oxo-2-thioxo-thiazolidin-3-yl}-propionylamino)-2-hydroxy-benzoic acid]
18 | 4.64 | 4.48 | O=C(CCN1C(=O)/C(=C/c2ccc3c(c2)OCO3)SC1=S)Nc1ccc(C(=O)O)c(O)c1 [4-(3-{5-[1-Benzo[1,3]dioxol-5-yl-meth-(Z)-ylidene]-4-oxo-2-thioxo-thiazolidin-3-yl}-propionylamino)-2-hydroxy-benzoic acid]

Row | pIC50 [1] | pIC50 [2] | SMILES
19 | 4.12 | 4.23 | O=C(CN1C(=O)/C(=C2\SC(=S)N(CC(=O)Nc3ccc(C(=O)O)cc3)C2=O)SC1=S)Nc1ccc(C(=O)O)cc1 [4-{5-[3-(4-carboxyphenylcarbamoylmethyl)-4-oxo-2-thioxo-1,3-thiazolan-5-yliden]-4-oxo-2-thioxo-1,3-thiazolan-3-ylmethylcarboxamido}benzoic acid]
20 | < 4.00 | < 4.00 | O=C(NC(=S)Nc1ccc(O)c(C(=O)O)c1)c1ccccc1 [5-(3-Benzoyl-thioureido)-2-hydroxy-benzoic acid]
21 | 4.96 | 4.82 | CCc1ccc(/C=C2\SC(=S)N(CCC(=O)Nc3ccc(O)c(C(=O)O)c3)C2=O)cc1 [5-(3-{5-[1-(4-Ethyl-phenyl)-meth-(Z)-ylidene]-4-oxo-2-thioxo-thiazolidin-3-yl}-propionylamino)-2-hydroxy-benzoic acid]
22 | 4.77 | 4.82 | O=C(CCN1C(=O)/C(=C/c2ccc3c(c2)OCO3)SC1=S)Nc1ccc(O)c(C(=O)O)c1 [5-(3-{5-[1-Benzo[1,3]dioxol-5-yl-meth-(Z)-ylidene]-4-oxo-2-thioxo-thiazolidin-3-yl}-propionylamino)-2-hydroxy-benzoic acid]
23 | < 4.00 | < 4.00 | O=C1/C(=C/c2ccc(O)cc2O)SC(=S)N1c1ccccc1 [5-[1-(2,4-Dihydroxy-phenyl)-meth-(Z)-ylidene]-3-phenyl-2-thioxo-thiazolidin-4-one]
24 | 4.36 | 4.18 | O=C(O)c1ccc(S(=O)(=O)c2ccc3c(c2)C(=O)N(c2ccc(O)c(C(=O)O)c2)C3=O)cc1 [5-[5-(4-Carboxy-benzenesulfonyl)-1,3-dioxo-1,3-dihydro-isoindol-2-yl]-2-hydroxy-benzoic acid]
25 | 5.10 | 4.80 | Cc1ccc2nc(C(C#N)=Cc3ccc(-c4ccc(O)c(C(=O)O)c4)o3)[nH]c2c1 [5-{5-[(E)-2-Cyano-2-(5-methyl-1H-benzoimidazol-2-yl)-vinyl]-furan-2-yl}-2-hydroxy-benzoic acid]
26 | < 4.00 | < 4.00 | Cc1ccc(/C=C2\SC(=S)N(CC(=O)Nc3ccc([N+](=O)[O-])cc3O)C2=O)cc1 [N-(2-Hydroxy-4-nitro-phenyl)-2-{4-oxo-2-thioxo-5-[1-p-tolyl-meth-(Z)-ylidene]-thiazolidin-3-yl}-acetamide]
27 | 4.10 | 4.08 | Cc1ccc(/C=C2\SC(=S)N(CC(=O)Nc3cc([N+](=O)[O-])ccc3O)C2=O)cc1 [N-(2-Hydroxy-5-nitro-phenyl)-2-{4-oxo-2-thioxo-5-[1-p-tolyl-meth-(Z)-ylidene]-thiazolidin-3-yl}-acetamide]
28 | < 4.00 | < 4.00 | O=C(CCN1C(=O)/C(=C/c2cccs2)SC1=S)Nc1cccc(O)c1 [N-(3-Hydroxy-phenyl)-3-{4-oxo-5-[1-thiophen-2-yl-meth-(Z)-ylidene]-2-thioxo-thiazolidin-3-yl}-propionamide]
29 | 4.16 | 4.23 | O=C(CN1C(=O)/C(=C2\SC(=S)N(CC(=O)Nc3ccc(O)cc3)C2=O)SC1=S)Nc1ccc(O)cc1 [N-(4-Hydroxy-phenyl)-2-{(E)-3''-[(4-hydroxy-phenylcarbamoyl)-methyl]-4,4''-dioxo-2,2''-dithioxo-[5,5'']bithiazolidinyliden-3-yl}-acetamide]
30 | 4.00 | 4.00 | COc1ccccc1/C=C1/SC(=S)N(CCC(=O)Nc2ccc(O)cc2)C1=O [N-(4-Hydroxy-phenyl)-3-{5-[1-(2-methoxy-phenyl)-meth-(E)-ylidene]-4-oxo-2-thioxo-thiazolidin-3-yl}-propionamide]
31 | 4.77 | 4.49 | COc1cc(/C=C2\SC(=S)N(CC(=O)Nc3cc(Cl)ccc3O)C2=O)cc(OC)c1OC [N-(5-Chloro-2-hydroxy-phenyl)-2-{4-oxo-2-thioxo-5-[1-(3,4,5-trimethoxy-phenyl)-meth-(Z)-ylidene]-thiazolidin-3-yl}-acetamide]
32 | 4.03 | 4.01 | O=C(CCN1C(=O)/C(=C/c2ccc3c(c2)OCO3)SC1=S)Nc1ccc2c(c1)OCO2 [N-Benzo[1,3]dioxol-5-yl-3-{5-[1-benzo[1,3]dioxol-5-yl-meth-(Z)-ylidene]-4-oxo-2-thioxo-thiazolidin-3-yl}-propionamide]
33 | < 4.00 | < 4.00 | O=C(CCN1C(=O)/C(=C/c2cccs2)SC1=S)Nc1ccc2ccccc2c1 [N-Naphthalen-2-yl-3-{4-oxo-5-[1-thiophen-2-yl-meth-(Z)-ylidene]-2-thioxo-thiazolidin-3-yl}-propionamide]
34 | 4.42 | 4.15 | CCOc1cc(C=C2SC(=S)N(NC(=O)c3ccccc3O)C2=O)ccc1O [N-{5-[1-(3-Ethoxy-4-hydroxy-phenyl)-meth-(Z)-ylidene]-4-oxo-2-thioxo-thiazolidin-3-yl}-2-hydroxy-benzamide]
35 | 4.57 | 4.28 | O=C(NN1C(=O)C(=Cc2ccc(Br)cc2)SC1=S)c1ccccc1O [N-{5-[1-(4-Bromo-phenyl)-meth-(Z)-ylidene]-4-oxo-2-thioxo-thiazolidin-3-yl}-2-hydroxy-benzamide]
